Laboratory results as given in patent US6946463B2, “1,2,5,10-tetrahydropyridazino[4,5-b]quinoline-1,10-diones and their use for the treatment of pain” (Astrazeneca AB, priority 2000, dated 2005).
Structures can show the parent of a compound that is named as a salt. Where two headings read alike, the source gives them in different places.

Biological target: T1, NMDA receptor glycine site (Rattus norvegicus, UniProt P35439)
T1 construct: fresh brain tissue including cerebral cortex and hippocampus from male Sprague Dawley rats was homogenized; tissue Analytical Biological Services Inc; host or cells: rat brain membranes (cerebral cortex and hippocampus, male Sprague Dawley rats)
Test: Test A: Inhibition of binding of [3H]-MDL105,519 to brain membranes
Excerpt: Test A: Inhibition of Binding of [^3H]-MDL105,519:
Binding of compounds to the NMDA receptor glycine site may be assessed by measuring the ability of test compounds to inhibit the binding of tritiated MDL105,519 to brain membranes bearing the receptor.
Briefly, fresh brain tissue including cerebral cortex and hippocampus from male Sprague Dawley rats was homogenized in 0.32 M sucrose and centrifuged at low speed to separate cellular membranes from other cellular components. The membranes were then washed 3 times using deionized water, followed by treatment with 0.04% Triton X-100. Finally, membranes were washed six times in 50 mM Tris citrate buffer, pH 7.4, and frozen at −80° C. until use.
[^3H]MDL105,519 (72 Ci/mmol) was purchased from Amersham. Cold MDL105,519 was purchased from Sigma/RBI. […] On the day of the experiment, brain membranes were thawed at room temperature and suspended in 50 mM tris acetate buffer, pH 7.4 (“TAB”). Seventy-five micro grams per milliliter protein (by using the BioRad dye) were used for competition binding. The experiments were carried out using 96-well plates. […] Non specific binding was determined by using 100 μM of unlabeled MDL105,519. […] After incubation, unbound [^3H]ML105,519 was removed by filtration onto GF/B Unifilter plates using a Packard harvester. Filters were washed four times with ice cold TAB (total of 1.2 mL buffer). The plates were dried overnight at room temperature and bound radioactivity was measured on a Packard TopCount after the addition of 45 μL per well of the MICROSCINT O.
Human Brain Membranes: Human brain membranes were obtained from Analytical Biological Services Inc., and assays were performed as described for rat membranes.
Data analysis: Data was analyzed using a Microsoft Excel spreadsheet and GraphPad Prizm software and potency of compounds is expressed as the Ki (nM).

[1] = inhibition of [3H]-MDL105,519 binding to brain membranes, 1.2 nM radioligand, 30 minutes at room temperature

Row | Structure (SMILES) | Ki | other results
1 | Cc1cnccc1C(C)n1nc(O)c2[nH]c3cc(Cl)ccc3c(=O)c2c1=O (racemic) [Ex. 5, (+/−)-7-Chloro-4-hydroxy-2-(1-(3-methylpyrid-4-yl))ethyl-1,2,5,10-tetrahydropyridazino[4,5-b]quinoline-1,10-dione] | 0.907 µM | 
2 | O=c1c2ccc(Cl)cc2[nH]c2c(O)nn(C(c3ccccc3)c3ccncc3)c(=O)c12 (racemic) [Ex. 4, (+/−)-7-Chloro-4-hydroxy-2-(1-phenyl-1-pyrid-4-yl)methyl-1,2,5,10-tetrahydropyridazino[4,5-b]quinoline-1,10-dione] |  | Ki [1]: 3.69 µM
3 | O=c1[nH]n(C(c2ccccn2)C2CCCC2)c(=O)c2c(O)c3ccc(Cl)cc3nc12 (racemic) [Ex. 3, (+/−)-7-Chloro-4-hydroxy-2-(1-cyclopentyl-1-pyrid-2-yl)methyl-1,2,5,10-tetrahydropyridazino[4,5-b]quinoline-1,10-dione hydrochloride] |  | Ki (inhibition of [3H]-MDL105,519 binding to brain membranes, bound in μM): > 10 µM
4 | O=c1c2ccc(Cl)cc2[nH]c2c(O)nn(C(c3ccccn3)C3CC3)c(=O)c12 (racemic) [Ex. 1, (+/−)-7-Chloro-4-hydroxy-2-(1-cyclopropyl-1-pyrid-2-yl)methyl-1,2,5,10-tetrahydropyridazino[4,5-b]quinoline-1,10-dione] |  | Ki [1]: 0.996 µM
5 | CC(c1cccc[n+]1[O-])n1nc(O)c2[nH]c3cc(Cl)ccc3c(=O)c2c1=O (racemic) [Ex. 10, (+/−)-7-Chloro-4-hydroxy-2-(1-pyrid-2-yl-N-oxide)ethyl-1,2,5,10-tetrahydropyridazino[4,5-b]quinoline-1,10-dione] | 2.57 µM | 
6 | CC(c1cc[n+]([O-])cc1)n1[nH]c(=O)c2nc3cc(Cl)ccc3c(O)c2c1=O (racemic) [Ex. 11, (+/−)-7-Chloro-4-hydroxy-2-(1-pyrid-4-yl-N-oxide)ethyl-1,2,5,10-tetrahydrpyridazino[4,5-b]quinoline-1,10-dione] | 2.42 µM | 

Now from value to compound, other results behind:

Row | Ki | Structure (SMILES) | other results
7 | 0.228 µM | Cc1cc(C(C)n2nc(O)c3[nH]c4cc(Cl)ccc4c(=O)c3c2=O)ccn1 (racemic) [Ex. 8, (+/−)-7-Chloro-4-hydroxy-2-(1-methyl(2-methylpyrid-4-yl)methyl)-1,2,5,10-tetrahydropyridazino[4,5-b]quinoline-1,10-dione methanesulfonate] | 
8 | 1.78 µM | Cc1cccnc1C(C)n1nc(O)c2[nH]c3cc(Cl)ccc3c(=O)c2c1=O (racemic) [Ex. 7, (+/−)-7-Chloro-4-hydroxy-2-(1-methyl(3-methylpyrid-2-yl)methyl)-1,2,5,10-tetrahydropydridazino[4,5-b]quinoline-1,10-dione methanesulfonate] | 
